Measured values reported in patent US10881110B2, “Herbicidal compositions comprising isoxazolo[5,4-b]pyridines” (BASF SE, priority 2014, dated 2021).

Columns and labels:
Experiment in all cases: greenhouse post-emergence herbicidal test
ABUTH = assay type: in vivo, Abutilon theophrast; parameters: key to herbicidal activity against ABUTH found: rating on a scale from 0 to 100; conditions: post emergence
In short: (§1)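 Post-emergence spray on 1–15 cm plants in medium loamy sand pots; actives as 10% w/w EC diluted in water. 10-25° C / 20-35° C per species. Visual score 20 d after treatment, 0 = no damage, 100 = full kill; Colby expected value E=X+Y−(X·Y/100).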

ALOMY = assay type: in vivo, Alopecurus myosuroides; parameters: key to herbicidal activity against ALOMY found: rating on a scale from 0 to 100; conditions: post emergence, 20 days after treatment
In short: as §1

APESV = assay type: in vivo, Apera spica-venti; parameters: key to herbicidal activity against APESV found: rating on a scale from 0 to 100; conditions: post emergence, 20 days after treatment
In short: as §1

CHEAL = assay type: in vivo, Chenopodium album
Procedure: (§2) The culture containers used were plastic pots containing medium loamy sand with approximately 4.6% of humus and 69.9% sand as substrate. The seeds of the test plants were sown separately for each species.
(§3) For the post-emergence treatment, the test plants were grown to a plant height of from 1 to 15 cm, depending on the plant habit, and only then treated with the active compounds which had been suspended or emulsified in water. To this end, the test plants were either sown directly, and grown in the same containers, or they were first grown separately as seedlings and transplanted into the test containers a few days prior to treatment.
(§4) Depending on the species, the plants were kept at 10-25° C. and 20-35° C., respectively.
(§5) The test period extended over 1 to 3 weeks. During this time, the plants were tended and their response to the individual treatments was evaluated 20 days after treatment except mentioned otherwise.
(§6) Evaluation was carried out using a scale from 0 to 100. 100 means no emergence of the plants, or complete destruction of at least the above-ground parts, and 0 means no damage or normal course of growth.
(§7) The respective stated components A and B, and, if appropriate, C, were formulated as a 10% by weight strength emulsion concentrate and, with addition of the amount of solvent system, introduced into the spray liquor used for applying the active compound. In the examples, the solvent used was water.
(§8) In the examples below, using the method of S. R. Colby (1967) “Calculating synergistic and antagonistic responses of herbicide combinations”, Weeds 15, p. 22 ff., the value E, which is expected if the activity of the individual active compounds is only additive, was calculated. E=X+Y−(X·Y/100)

CONAR = assay type: in vivo, Convolvulus arvensis; parameters: key: rating on a scale from 0 to 100
In short: as §1

ECHCG = assay type: in vivo, Echinochloa crus-galli; parameters: key to herbicidal activity against ECHCG found / herbicidal activity against ECHCH found: scale 0 to 100; conditions: post emergence, 20 days after treatment
In short: as §1

GALAP = assay type: in vivo, Galium aparine; parameters: key to herbicidal activity against GALAP found: rating on a scale from 0 to 100; conditions: post emergence
In short: (§9)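 Herbicidal activity scored on a 0 (no damage) to 100 (plants destroyed) scale, usually 20 days after water-based spraying of 1–15 cm plants grown in loamy sand at 10-25 °C or 20-35 °C depending on species. Components were applied from 10% emulsion concentrates; Colby's E=X+Y−(X·Y/100) gives the additive expectation.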

GERDI = assay type: in vivo, Geranium dissectum; parameters: key to herbicidal activity against GERDI found: rating on a scale from 0 to 100; conditions: post emergence
In short: as §1

LOLMU = assay type: in vivo, Lolium multiflorum
Procedure: as §2, §3, §4, §5, §6, §7, §8

MATCH = assay type: in vivo, Matricaria recutita; parameters: key to herbicidal activity against MATCH found: rating on a scale from 0 to 100; conditions: post emergence
In short: as §1

POLCO = assay type: in vivo, Polygonum convolvulus; parameters: key to herbicidal activity against POLCO found: rating on a scale from 0 to 100; conditions: post emergence
In short: as §9

STEME = assay type: in vivo, Stellaria media; parameters: key: scale 0 to 100
In short: as §1

PHACA = assay type: in vivo
Procedure: as §2, §3, §4, §5, §6, §7, §8

GERPU = assay type: in vivo, Geranium pusillum; conditions: application rate a.i.: I.1 31.25 g/ha, B.87 (carfentrazone-ethyl) 1.75 g/ha, alone or as mixture (composition 1.87)
Procedure: as §2, §3, §4, §5, §6, §7, §8

LAMAM = assay type: in vivo, Lamium amplexicaule; parameters: key: scale 0 to 100
Procedure: as §2, §3, §4, §5, §6, §7, §8

PAPRH = assay type: in vivo, Papaver rhoeas; parameters: key: rating on a scale from 0 to 100
In short: as §1

SEBEX = assay type: in vivo, Sesbania exaltata; conditions: application rate a.i.: I.1 31.25 g/ha, B.87 (carfentrazone-ethyl) 1.75 g/ha, alone or as mixture (composition 1.87)
Procedure: as §2, §3, §4, §5, §6, §7, §8

PANMI = assay type: in vivo, Panicum miliaceum; conditions: application rate a.i.: I.1 125 g/ha, alone or as mixture (composition 1.113)
Procedure: as §2, §3, §4, §5, §6, §7, §8

POLAV = assay type: in vivo, Polygonum aviculare; parameters: key: rating on a scale from 0 to 100
Procedure: as §2, §3, §4, §5, §6, §7, §8

POLPE = assay type: in vivo, Persicaria maculosa; parameters: key: scale 0 to 100
Procedure: as §2, §3, §4, §5, §6, §7, §8

VIOAR = assay type: in vivo, Viola arvensis; parameters: key to herbicidal activity against VIOAR found / herbicidal activity against VIOLA found: rating on a scale from 0 to 100; conditions: post emergence
In short: as §9

[1] = a.i. g/ha: I.1 7.8, B.67 125, 20 days after treatment
[2] = a.i. g/ha: I.1 15.6, B.67 125, 20 days after treatment
[3] = a.i. g/ha: I.1 31.25, B.67 125, 20 days after treatment
[4] = a.i. g/ha: I.1 31.25, B.67 125, 20 days after treatment, sub-table r36-r43
[5] = a.i. g/ha: I.1 62.5, B.67 125, 20 days after treatment
[6] = a.i. g/ha: I.1 6.9, B.67 62.5, 20 days after treatment
[7] = a.i. g/ha: I.1 20.8, B.67 62.5, 20 days after treatment
[8] = a.i. g/ha: I.1 62.5, B.67 62.5, 20 days after treatment
[9] = application rate a.i.: I.1 62.5 g/ha, B.87 (carfentrazone-ethyl) 1.75 g/ha, alone or as mixture (composition 1.87)
[10] = application rate a.i.: I.1 31.25 g/ha, B.87 (carfentrazone-ethyl) 1.75 g/ha, alone or as mixture (composition 1.87)
[11] = application rate a.i.: I.1 125 g/ha, B.113 (glyphosate) 33.75 g/ha, alone or as mixture (composition 1.113)
[12] = application rate a.i.: I.1 125 g/ha, B.113 (glyphosate) 135 g/ha, alone or as mixture (composition 1.113)

SMILES: CCNc1nc(Cl)nc(NC(C)C)n1 [B.67, atrazine]
- herbicidal activity against ABUTH found (ABUTH; [1]): 60%
- herbicidal activity against ABUTH found (ABUTH; [2]): 60%
- herbicidal activity against ABUTH found (ABUTH; [3]): 60%
- herbicidal activity against ABUTH found (ABUTH; [4]): 60%
- herbicidal activity against ABUTH found (ABUTH; [5]): 60%
- herbicidal activity against ALOMY found (ALOMY; a.i. g/ha: I.1 6.9, B.67 62.5): 35%
- herbicidal activity against ALOMY found (ALOMY; a.i. g/ha: I.1 20.8, B.67 62.5): 35%
- herbicidal activity against ALOMY found (ALOMY; a.i. g/ha: I.1 62.5, B.67 62.5): 35%
- herbicidal activity against APESV found (APESV; a.i. g/ha: I.1 2.3, B.67 62.5): 60%
- herbicidal activity against APESV found (APESV; a.i. g/ha: I.1 6.9, B.67 62.5): 60%
- herbicidal activity against CHEAL found (CHEAL; [6]): 75%
- herbicidal activity against CHEAL found (CHEAL; [2]): 80%
- herbicidal activity against CHEAL found (CHEAL; [7]): 75%
- herbicidal activity against CHEAL found (CHEAL; [3]): 80%
- herbicidal activity against CONAR found (CONAR; [1]): 65%
- herbicidal activity against CONAR found (CONAR; [2]): 65%
- herbicidal activity against CONAR found (CONAR; [7]): 60%
- herbicidal activity against CONAR found (CONAR; [3]): 65%
- herbicidal activity against CONAR found (CONAR; [8]): 60%
- herbicidal activity against CONAR found (CONAR; [5]): 65%
- herbicidal activity against ECHCG found (ECHCG; a.i. g/ha: I.1 20.8, B.67 62.5): 35%
- herbicidal activity against ECHCG found (ECHCG; a.i. g/ha: I.1 62.5, B.67 62.5): 35%
- herbicidal activity against GALAP found (GALAP; [2]): 70%
- herbicidal activity against GALAP found (GALAP; [7]): 65%
- herbicidal activity against GALAP found (GALAP; [3]): 70%
- herbicidal activity against GALAP found (GALAP; [8]): 65%
- herbicidal activity against GERDI found (GERDI; [1]): 70%
- herbicidal activity against GERDI found (GERDI; [2]): 70%
- herbicidal activity against GERDI found (GERDI; [3]): 85%
- herbicidal activity against GERDI found (GERDI; [4]): 85%
- herbicidal activity against GERDI found (GERDI; [5]): 70%
- herbicidal activity against LOLMU found (LOLMU; [1]): 35%
- herbicidal activity against LOLMU found (LOLMU; [2]): 35%
- herbicidal activity against LOLMU found (LOLMU; [3]): 35%
- herbicidal activity against LOLMU found (LOLMU; [8]): 20%
- herbicidal activity against LOLMU found (LOLMU; [5]): 35%
- herbicidal activity against MATCH found (MATCH; [3]): 70%
- herbicidal activity against MATCH found (MATCH; [4]): 70%
- herbicidal activity against MATCH found (MATCH; [5]): 50%
- herbicidal activity against POLCO found (POLCO; [2]): 60%
- herbicidal activity against POLCO found (POLCO; [7]): 80%
- herbicidal activity against POLCO found (POLCO; [3]): 60%
- herbicidal activity against POLCO found (POLCO; [8]): 80%
- herbicidal activity against STEME found (STEME; a.i. g/ha: I.1 2.3, B.67 62.5, 20 days after treatment): 80%
- herbicidal activity against STEME found (STEME; [6]): 80%
- herbicidal activity against STEME found (STEME; [2]): 75%
- herbicidal activity against STEME found (STEME; [7]): 80%
- herbicidal activity against STEME found (STEME; [3]): 75%
- herbicidal activity against STEME found (STEME; [4]): 75%
- herbicidal activity against PHACA found (PHACA; [3]): 30%
- herbicidal activity against PHACA found (PHACA; [5]): 30%

SMILES: CCOC(=O)C(Cl)Cc1cc(-n2nc(C)n(C(F)F)c2=O)c(F)cc1Cl (stereo not shown) [B.87, carfentrazone-ethyl]
- herbicidal activity against GERDI found (GERDI; [9]): 70
- herbicidal activity against GERPU, found (GERPU): 75
- herbicidal activity against LALAM, found (LAMAM; [10]): 80
- herbicidal activity against LAMAM, found (LAMAM; [9]): 80
- herbicidal activity against MATCH found (MATCH; [10]): 75
- herbicidal activity against MATCH found (MATCH; [9]): 75
- herbicidal activity against PAPRH found (PAPRH; [9]): 30
- herbicidal activity against SEBEX, found (SEBEX): 75

SMILES: O=C(O)CNCP(=O)(O)O [B.113, glyphosate]
- herbicidal activity against CONAR found (CONAR; [11]): 45
- herbicidal activity against GALAP found (GALAP; [11]): 50
- herbicidal activity against GALAP found (GALAP; [12]): 80
- herbicidal activity against GERDI found (GERDI; [12]): 80
- herbicidal activity against PANMI, found (PANMI; B.113 (glyphosate) 33.75 g/ha): 80
- herbicidal activity against PANMI, found (PANMI; B.113 (glyphosate) 135 g/ha): 90

SMILES: Cc1cc(Cl)ccc1OCC(=O)O [B.164, MCPA]
- herbicidal activity against ABUTH found (ABUTH; 200 g/ha a.i.): 80
- herbicidal activity against CONAR found (CONAR; 200 g/ha a.i.): 90
- herbicidal activity against CONAR found (CONAR; 400 g/ha a.i.): 90
- herbicidal activity against GALAP found (GALAP; 400 g/ha a.i.): 30
- herbicidal activity against GERDI found (GERDI; 100 g/ha a.i.): 65
- herbicidal activity against LAMAM, found (LAMAM; 200 g/ha a.i.): 65
- herbicidal activity against LAMAM, found (LAMAM; 400 g/ha a.i.): 70
- herbicidal activity against MATCH found (MATCH; 400 g/ha a.i.): 50
- herbicidal activity against PAPRH found (PAPRH; 100 g/ha a.i.): 60
- herbicidal activity against PAPRH found (PAPRH; 200 g/ha a.i.): 65
- herbicidal activity against POLAV found (POLAV; 100 g/ha a.i.): 70
- herbicidal activity against POLAV found (POLAV; 200 g/ha a.i.): 85
- herbicidal activity against POLAV found (POLAV; 400 g/ha a.i.): 85
- herbicidal activity against POLCO found (POLCO; 200 g/ha a.i.): 50
- herbicidal activity against POLCO found (POLCO; 400 g/ha a.i.): 50
- herbicidal activity against POLPE found (POLPE; 200 g/ha a.i.): 65
- herbicidal activity against POLPE found (POLPE; 400 g/ha a.i.): 80
- herbicidal activity against STEME found (STEME; 100 g/ha a.i.): 50
- herbicidal activity against STEME found (STEME; 200 g/ha a.i.): 60
- herbicidal activity against STEME found (STEME; 400 g/ha a.i.): 80
- herbicidal activity against VIOAR found (VIOAR; 100 g/ha a.i.): 60
- herbicidal activity against VIOAR found (VIOAR; 200 g/ha a.i.): 65
- herbicidal activity against VIOAR found (VIOAR; 400 g/ha a.i.): 70
